Values quoted from earlier work, collected in patent publication EP0811056B1, “PEPTIDES FOR TISSUE AND CELL CULTURE MEDIA” (QUEST INTERNATIONAL B.V., priority 1995, dated 1996).

Conditions: on a glutamine basis

Glycyl-L-glutamine
amount of the dipeptide needed compared with free glutamine to obtain the same result: up to 6 times
